Reference: patent US6245758A, “Methods of use for peroxynitrite decomposition catalysts, pharmaceutical compositions therefor” (priority 1996, dated 2001)
Where a name gives a salt, the structure may show the parent alone.

Assays:
[1] = Stopped-flow kinetic analysis of catalytic decomposition of peroxynitrite by metal complexes; settings: pH = 7.4, 22° C.
Protocol: To screen metal complexes for peroxynitrite decomposition catalytic activity of the present invention, peroxynitrite is prepared and isolated as its sodium salt by the reaction of acidic hydrogen peroxide with sodium nitrite followed by rapid quenching with NaOH as set out by Halfpenny and Robinson, in J. Chem. So., 1952, 928-938. Peroxynitrite has an absorbance maximum at 302 nm with an extinction coefficient of 1670 M^-1 cm^-1. Therefore, it is possible to directly observe the decomposition of peroxynitrite by stop-flow spectrophotometric analysis by monitoring the decomposition of the absorbance at 302 nm. That is, such observation of the decomposition of peroxynitrite at a rate accelerated over the natural decomposition rate with the addition of the metal complex identifies a compound of the present invention.
Kinetic measurements were made on an OLIS Rapid Scanning Stopped-Flow Spectrometer (On-Line Instrument Systems Inc., Bogart, Ga.)) using the OLISRSM-1000 Operating system for data acquisition and manipulation.
Thus, in a typical experiment the natural background decomposition rate of sodium peroxynitrite was determined as follows. A 24 mM stock solution of sodium peroxynitrite in 50 mM NaOH is load into the small volume syringe and 100 mM potassium phosphate pH=7.4 is charged into the large volume syringe of the stopped-flow spectrophotometer. All stopped -flow measurements were made at 22 ° C. Injection of the solutions into the sample compartment results in ~25 fold dilution of the stock sodium peroxynitrite. […] To test for catalytic peroxynitrite decomposition activity, the metal complex was dissolved in 100 mM potassium phosphate buffer pH=7.4 and loaded into the large syringe and the decomposition of peroxynitrite was monitored as described above. The catalytic rate constant (kcat M-1 sec^-1) for the complexes tested was determined by varying the complex concentration and plotting kobs vs [complex] Table 1. The kobs were obtained from averages of three stopped flow analysis at each catalyst concentration.

[2] = tested on: carrageenan-induced paw edema; experiment: Carrageenan-induced paw edema; assay type: in vivo, rat
Source text: Carrageenan-induced paw edema. The effects of peroxynitrite catalysts in vivo were initially tested on the carrageenan-induced paw edema. The choice of using this in vivo model of inflammation was based on the knowledge that 1) the inflammatory response is blocked by NOS inhibitors and 2) by superoxide dismutase (SOD). This indicates the participation of both NO and of O2-. Male Sprague Dawley rats were purchased from Harlan Sprague-Dawley (Indianapolis, Ind.). Male Sprague Dawley rats (175-200 g) received a subplantar injection in the right hind paw of carrageenan (0.1 ml of a 1% suspension in 0.85% saline). Paw volume was measured by a plethysmometer immediately before the injection of carrageenan and then at hourly intervals from 1 to 6 h. Edema was expressed as the increase in paw volume (in ml) measured after carrageenan injection compared to the pre-injection value for individual animals.

RAW 264.7 cells = experiment: Cell protection assay, Alamar Blue viability after peroxynitrite challenge; assay type: cell-based, murine; settings: PN 500 micromolar; RAW cells, FIG. 9 (H2 TMPyP and ZnTMPyP: data not shown)
Protocol: FIG. 8: Comparison of Ni and Fe Catalyst Protection of RAW Cells from PN(peroxynitrite)-mediated Injury. RAW 264.7 cells were plated at approximately 2×10^5 per well of a 96-well plate. […] Each condition represents the mean of 4 wells ±sem.
FIG. 9: Protection from PN-mediated RAW Cell Injury by Fe Catalysts. Cells were treated with 500 micromolar PN in the presence or the absence of the following catalysts: FeTMPyP, FeTMPS, FeTPPS. Cell viability was monitored as described in the text and figure legends 1, 2 and 3. Values represent the mean of 4 determinations ±sem.
Protocol for Cell Protection Assays using Peroxynitrite Decomposition Catalysts: A cell viability assay was established to rapidly assess the efficacy of peroxynitrite(PN) catalysts in protecting cells from PN25 mediated injury and death. The peroxynitrite challenge consisted of a pulse of synthetic PN added exogenously to cells. In order to better assess the efficacy of PN catalysts in protecting cells from PN-mediated damage, a quantity of peroxynitrite(in 50 mM NaOH) determined to cause maximal injury(100%) was added as an exogenous pulse to each well of cells in the presence or absence of catalyst. The NaOH vehicle was not toxic by itself.
Cells(RAW 264.7 cells or P815 mastocytoma cells; American Type Culture Collection, Rockville, Md.) were plated to confluence on 96-well tissue culture plates. Each well is washed twice with Dulbecco's phosphate buffered saline(DPBS; GIBCO BRL, Grand Island, N.Y.) to remove protein and other serum components which might react with the exogenous peroxynitrite. To each well is then added 200 μl of DPBS. PN is next placed into separate wells at increasing concentrations and cell viability monitored. The dose at which maximal cell death is attained is then utilized for the catalyst protection assessment.
Phosphate-buffered saline (200 uL) containing increasing concentrations of catalyst is next placed into individual wells of cells. The maximal dose of PN is subsequently administered to all wells of cells. After 15 minutes, the medium is removed from each well and the cells are either allowed to recover overnight in Earles minimum essential medium without phenol red and supplemented with 10% fetal bovine serum or alternatively the plate of cells is assayed that day for mitochondrial integrity using the Alamar Blue viability assay(Alamar Biosciences, Inc.; Sacramento, Calif.). In either case, cells are incubated at 37° C. in 5% CO2.
Cell injury is measured as follows. Briefly, 10% Alamar Blue(v/v) in Earles MEM with 10% FBS is added to each well of cells for 1-2h. Cell metabolism of the dye generates a fluorescent product which is directly related to the number of viable cells. Moreover, the production of the fluorescent metabolite is linear for over 2 h. The amount of fluorescent product in 100 μl of conditioned medium from each well of cells is then measured with an IDEXX fluorescent plate reader (gain setting of 1%) at an emission wavelength of 575 nm after exciting at 545 nm. Viability is either given as absolute fluorescent units or as a percent of the value obtained for untreated cells(100%).

[3] = 30 mg/kg i.v., 1 h post carrageenan
[4] = 30 mg/kg i.v., 2 h post carrageenan
[5] = 30 mg/kg i.v., 3 h post carrageenan
[6] = 30 mg/kg i.v., 4 h post carrageenan
[7] = 30 mg/kg i.v., 5 h post carrageenan
[8] = 30 mg/kg i.v., 6 h post carrageenan

Compound	kcat, catalytic rate constant for the decomposition of sodium peroxynitrite [1]	% Inhibition of Paw Edema [2, 3] [%]	% Inhibition of Paw Edema [2, 4] [%]	% Inhibition of Paw Edema [2, 5] [%]	% Inhibition of Paw Edema [2, 6] [%]	% Inhibition of Paw Edema [2, 7] [%]	% Inhibition of Paw Edema [2, 8] [%]	further results
Cc1c(-c2c3nc(c(-c4c(C)c(S(=O)(=O)O)c(C)c(S(=O)(=O)O)c4C)c4ccc([nH]4)c(-c4c(C)c(S(=O)(=O)O)c(C)c(S(=O)(=O)O)c4C)c4nc(c(-c5c(C)c(S(=O)(=O)O)c(C)c(S(=O)(=O)O)c5C)c5ccc2[nH]5)C=C4)C=C3)c(C)c(S(=O)(=O)O)c(C)c1S(=O)(=O)O [Example H2TMPS, 5,10,15,20-tetrakis(3,5-disulfonatedmesityl)porphyrin octasodium salt]	Inactive	0	0	0	0	0	0	inhibition of edema formation ([2]; 30 mg/kg i.v.): failed to inhibit edema formation
COc1cccc(C=NCCN=Cc2cccc(OC)c2[O-])c1[O-].[Cl-].[Fe+3] [Fe(III)(3,3'MeO2 Salen)]	50000 M⁻¹ s⁻¹							
O=C([O-])CC(O)(CC(=O)[O-])C(=O)[O-].[Fe+3] [Fe(III)Citrate, Iron(III)citrate, reference compound]	15000 M⁻¹ s⁻¹							
O=C([O-])CN(CCN(CC(=O)[O-])CC(=O)[O-])CC(=O)[O-].[Fe+3] [Fe(III)EDTA, iron(III)EDTA, reference compound]	20000 M⁻¹ s⁻¹							
CC(=O)[O-].O=S(=O)(O)c1ccc(-c2c3nc(c(-c4ccc(S(=O)(=O)O)cc4)c4ccc([n-]4)c(-c4ccc(S(=O)(=O)O)cc4)c4nc(c(-c5ccc(S(=O)(=O)O)cc5)c5ccc2[n-]5)C=C4)C=C3)cc1.[Fe+3] [Fe(III)TPPS, Acetato-5,10,15,20-tetrakis(4-sulfonatophenyl)porphyrin iron(III)]	2.06e+06 M⁻¹ s⁻¹	0	27	25	30	34	33	protection of cells from PN-mediated injury (RAW 264.7 cells): significant protection of cells; % Inhibition of Paw Edema ([2]; 3 mg/kg i.v., 1 h post carrageenan): 0%; % Inhibition of Paw Edema ([2]; 3 mg/kg i.v., 2 h post carrageenan): 29%; % Inhibition of Paw Edema ([2]; 3 mg/kg i.v., 3 h post carrageenan): 20%; % Inhibition of Paw Edema ([2]; 3 mg/kg i.v., 4 h post carrageenan): 20%; % Inhibition of Paw Edema ([2]; 3 mg/kg i.v., 5 h post carrageenan): 19%; % Inhibition of Paw Edema ([2]; 3 mg/kg i.v., 6 h post carrageenan): 5%; % Inhibition of Paw Edema ([2]; 10 mg/kg i.v., 1 h post carrageenan): 0%; % Inhibition of Paw Edema ([2]; 10 mg/kg i.v., 2 h post carrageenan): 17%; % Inhibition of Paw Edema ([2]; 10 mg/kg i.v., 3 h post carrageenan): 20%; % Inhibition of Paw Edema ([2]; 10 mg/kg i.v., 4 h post carrageenan): 23%; % Inhibition of Paw Edema ([2]; 10 mg/kg i.v., 5 h post carrageenan): 19%; % Inhibition of Paw Edema ([2]; 10 mg/kg i.v., 6 h post carrageenan): 20%
[Cl][Fe]([Cl])[Cl] [FeCl3, reference compound]								inhibition of edema formation ([2]; 5 mg/kg, n=6): failed to inhibit edema formation
CC(=O)[O-].Cc1c(-c2c3nc(c(-c4c(C)c(S(=O)(=O)[O-])c(C)c(S(=O)(=O)[O-])c4C)c4ccc([n-]4)c(-c4c(C)c(S(=O)(=O)[O-])c(C)c(S(=O)(=O)[O-])c4C)c4nc(c(-c5c(C)c(S(=O)(=O)[O-])c(C)c(S(=O)(=O)[O-])c5C)c5ccc2[n-]5)C=C4)C=C3)c(C)c(S(=O)(=O)[O-])c(C)c1S(=O)(=O)[O-].[Mn+3].[Na+].[Na+].[Na+].[Na+].[Na+].[Na+].[Na+].[Na+] [Mn(III)TMPS, Acetato 5,10,15,20tetrakis(3,5,disulfonatomesityl)porphyrin Manganese(III) octasodium salt]	29000 M⁻¹ s⁻¹	0	0	0	0	0	0	
CC1=NCCCNCCCN=C(C)c2cccc1n2.[Cl-].[Cl-].[Ni+2] [Ni(CR)Cl2, reference compound]	Inactive							
Cc1c(-c2c3nc(c(-c4c(C)c(S(=O)(=O)[O-])c(C)c(S(=O)(=O)[O-])c4C)c4ccc([n-]4)c(-c4c(C)c(S(=O)(=O)[O-])c(C)c(S(=O)(=O)[O-])c4C)c4nc(c(-c5c(C)c(S(=O)(=O)[O-])c(C)c(S(=O)(=O)[O-])c5C)c5ccc2[n-]5)C=C4)C=C3)c(C)c(S(=O)(=O)[O-])c(C)c1S(=O)(=O)[O-].[Na+].[Na+].[Na+].[Na+].[Na+].[Na+].[Na+].[Na+].[Ni+2] [Ni(II)TMPS, Acetato-5,10,15,20-tetrakis(3,5-disulfonatomesityl)porphyrin Nickel (II) octasodium salt]	87200 M⁻¹ s⁻¹							
CC1=CC(C)=Nc2ccccc2[N-]C(C)=CC(C)=Nc2ccccc2[N-]1.[Ni+2] [Ni(II)[14]12eneN4]	17000 M⁻¹ s⁻¹							
Cc1c(-c2c3nc(c(-c4c(C)c(S(=O)(=O)[O-])c(C)c(S(=O)(=O)[O-])c4C)c4ccc([n-]4)c(-c4c(C)c(S(=O)(=O)[O-])c(C)c(S(=O)(=O)[O-])c4C)c4nc(c(-c5c(C)c(S(=O)(=O)[O-])c(C)c(S(=O)(=O)[O-])c5C)c5ccc2[n-]5)C=C4)C=C3)c(C)c(S(=O)(=O)[O-])c(C)c1S(=O)(=O)[O-].[Na+].[Na+].[Na+].[Na+].[Na+].[Na+].[Na+].[Na+].[Zn+2] [ZnTMPS, reference compound]		0	0	0	0	0	0	
MnTPPS [reference compound]								inhibition of edema formation ([2]; 30 mg/kg i.v.): failed to inhibit edema formation
